Series [1] deals with HeLa. The experiment in a line: Cytotoxicity against Homo sapiens (human) HeLa cells after 16 hr by MTT assay. It counts as functional.
In series [2] the test system is IMR-32. Briefly: Cell cycle arrest in Homo sapiens (human) IMR32 cells assessed as decrease of G2-M phase cell accumulation at 20 to 200 uM by FACS analysis. It counts as functional, cell-based. For orientation: A flow cytometer gives signals particle by particle.
The test system of series [3] is Jurkat. The experiment in a line: Cell cycle arrest in Homo sapiens (human) Jurkat cells assessed as decrease of G2-M phase cell accumulation at 20 to 200 uM by FACS analysis. In kind it is functional, cell-based.
For series [4], the system named is Jurkat. Briefly: Cytotoxicity against Homo sapiens (human) Jurkat cells after 16 hr by MTT assay. In kind it is functional.
In series [5] the test system is HeLa. Briefly: Cell cycle arrest in Homo sapiens (human) HeLa cells assessed as decrease of G2-M phase cell accumulation at 20 to 200 uM by FACS analysis. In kind it is functional, cell-based.
For series [6], the system named is Jurkat. Briefly: Cell cycle arrest in Homo sapiens (human) Jurkat cells assessed as decrease of G1 phase cell accumulation at 20 to 200 uM by FACS analysis. In kind it is functional, cell-based.
Series [7] deals with Jurkat. Briefly: Induction of endoplasmic reticulum stress in Homo sapiens (human) Jurkat cells assessed as Grp94 expression by immunoblot analysis. In kind it is functional, cell-based. Background: A western blot detects proteins with antibodies after separation by electrophoresis.
Series [8] concerns the target Cyclin-dependent kinase 2 (Homo sapiens) (UniProt P24941). Briefly: Destabilization of CDK2 in Homo sapiens (human) HeLa cells by immunoblot analysis. In kind it is cell-based.
The target is the same in series [9]. Briefly: Destabilization of CDK2 in Homo sapiens (human) Jurkat cells by immunoblot analysis. It counts as cell-based.
The test system of series [10] is IMR-32. Briefly: (§1) Cytotoxicity against Homo sapiens (human) IMR32 cells after 16 hr by MTT assay. In kind it is functional. On the technique in general: Tetrazolium assays rely on reduction of a dye to a coloured formazan, in cell work by metabolically active cells.
Series [11] deals with HeLa. Briefly: Cell cycle arrest in Homo sapiens (human) HeLa cells assessed as decrease of G1 phase cell accumulation at 20 to 200 uM by FACS analysis. It counts as functional, cell-based.
The test system of series [12] is HeLa. The experiment in a line: Induction of endoplasmic reticulum stress in Homo sapiens (human) HeLa cells assessed as Grp94 expression by immunoblot analysis. In kind it is functional, cell-based.
In series [13] the target is Cyclin-dependent kinase 2 (Homo sapiens) (UniProt P24941). Briefly: Destabilization of CDK2 in Homo sapiens (human) IMR32 cells by immunoblot analysis. It counts as cell-based. The following applies: IMR-32.
The subject of series [14] is IMR-32. The experiment in a line: Induction of endoplasmic reticulum stress in Homo sapiens (human) IMR32 cells assessed as Grp94 expression by immunoblot analysis. It counts as functional, cell-based.
Series [15] addresses Mitogen-activated protein kinase 3 (Homo sapiens) (UniProt P27361). Briefly: Destabilization of ERK1 in Homo sapiens (human) IMR32 cells by immunoblot analysis. In kind it is cell-based. The following applies: IMR-32.
In series [16] the test system is IMR-32. Described as §1. It counts as functional, cell-based.
Series [17] has as its system IMR-32. Briefly: Cytotoxicity against Homo sapiens (human) IMR32 cells at 200 uM after 16 hr by MTT assay. It counts as functional.
Series [18] can be described thus: Cytotoxicity against fibroblasts.
For another series, the species on record is Homo sapiens. The experiment in a line: Inhibition of tyrosine kinase (unknown origin).
Series [19] concerns IMR-32. The experiment in a line: Cell cycle arrest in Homo sapiens (human) IMR32 cells assessed as decrease of G1 phase cell accumulation at 20 to 200 uM by FACS analysis. In kind it is functional, cell-based.
The target in series [20] is Mitogen-activated protein kinase 3 (Homo sapiens) (UniProt P27361). Briefly: Destabilization of ERK1 in Homo sapiens (human) Jurkat cells by immunoblot analysis. In kind it is cell-based.
Sequence of Mitogen-activated protein kinase 3 (Homo sapiens) (P27361 whole entry): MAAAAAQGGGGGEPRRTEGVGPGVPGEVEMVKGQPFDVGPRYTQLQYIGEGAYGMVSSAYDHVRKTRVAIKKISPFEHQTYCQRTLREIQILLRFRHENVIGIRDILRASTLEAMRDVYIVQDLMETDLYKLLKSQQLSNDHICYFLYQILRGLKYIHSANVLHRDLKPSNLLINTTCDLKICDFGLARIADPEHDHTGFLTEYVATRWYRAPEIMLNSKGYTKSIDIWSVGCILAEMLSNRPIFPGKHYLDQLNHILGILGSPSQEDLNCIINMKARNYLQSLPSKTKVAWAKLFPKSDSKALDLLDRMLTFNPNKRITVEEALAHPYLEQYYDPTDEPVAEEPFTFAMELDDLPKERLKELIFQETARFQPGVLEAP
For series [21] the target is unchanged. The experiment in a line: Destabilization of ERK1 in Homo sapiens (human) HeLa cells by immunoblot analysis. In kind it is cell-based.
The test system of series [22] is IMR-32. The experiment in a line: Cytotoxicity against Homo sapiens (human) IMR32 cells at 20 to 200 uM after 16 hr by MTT assay. In kind it is functional, cell-based.

The structures appear in SMILES notation. Active and inactive are the calls of the source. No cut-off for these calls is given here.

Turning to `COc1c(-c2cc(-c3ccccc3)n(-c3cccc(F)c3)n2)ccc2occc12`, the Activity in the series with HeLa [1] was 28%; in the series on Jurkat [4] it was 35%; in the series on IMR-32 [10] it was 86%; in the series with IMR-32 [16] it was “Dose-dependent effect”; with IMR-32 [17], 60%; in series [18], “Non-toxic”. Besides, the result (with IMR-32 [2]; in the series on Jurkat [3]; in the series with HeLa [5]; in the series on Jurkat [6]; with Jurkat [7]; in [8]) was Active. For the same compound, the result (in series [9]; in the series on HeLa [11]; in the series on HeLa [12]; in [13]; in the series on IMR-32 [14]; in series [15]) was Active. The result in the series on IMR-32 [19] was Active. Moreover, in the series listed under Homo sapiens, the inhibition result is “inactive”.

Consider `COc1c(-c2cc(-c3ccccc3)[nH]n2)ccc2occc12`, for which the result with IMR-32 [2] was inactive. In addition, the Activity result in the series with IMR-32 [16] was “Dose-dependent effect”; in series [18], “Non-toxic”.

For `COc1c(-c2cc(-c3ccccc3)on2)ccc2occc12`, the Activity in the series on HeLa [1] was 26%; in the series on Jurkat [4], 31%; with IMR-32 [10] it was 58%; in the series on IMR-32 [16] it was “Dose-dependent effect”; in the series with IMR-32 [17] it was 60%; in series [18], “Non-toxic”. In addition, the outcome (in the series with IMR-32 [2]; in the series on Jurkat [3]; in series [20]; in the series with HeLa [5]; with Jurkat [6]; in series [8]) was Active. For the same compound, the result (in series [9]; in the series on HeLa [11]; in series [13]; in [21]; in series [15]; in the series with IMR-32 [19]) was Active. Further, the inhibition result in the series filed under Homo sapiens was “inactive”.

With `COc1c(-c2cc(-c3ccccc3)n(-c3ccc(Cl)cc3Cl)n2)ccc2occc12`, the result in the series with IMR-32 [2] and in the series with IMR-32 [22] was inactive. In addition, the Activity result in series [18] is given as “Non-toxic”.

On to `COc1c(-c2cc(-c3ccccc3)n(-c3cccc([N+](=O)[O-])c3)n2)ccc2occc12`, for which the outcome in the series with IMR-32 [2] was inactive. The Activity result in the series with IMR-32 [16] is “Dose-dependent effect”; in series [18], “Non-toxic”.

Regarding `COc1c(-c2cc(-c3ccccc3)n(-c3ccccc3F)n2)ccc2occc12`, the Activity in the series on HeLa [1] was 35%; with Jurkat [4], 45%; with IMR-32 [10], 71%; in the series with IMR-32 [16] it was “Dose-dependent effect”; in the series on IMR-32 [17], 60%; in [18], “Non-toxic”. Moreover, in the series on IMR-32 [2], the outcome was inactive. The outcome (in the series with Jurkat [3]; with HeLa [5]; with Jurkat [6]; in series [8]; in [9]; in the series with HeLa [11]) was Active. In addition, the result (in series [13]; in series [21]; in the series on IMR-32 [19]) was Active. For the same compound, the inhibition result in the series filed under Homo sapiens was “inactive”.

Regarding `COc1c(-c2cc(-c3ccccc3)n(-c3ccc(C)cc3C)n2)ccc2occc12`, the result in the series with IMR-32 [2] and in the series with IMR-32 [22] was inactive. For the same compound, the Activity result in [18] is reported as “Non-toxic”.

Take `COc1c(-c2cc(-c3ccccc3)n(-c3ccc([N+](=O)[O-])cc3[N+](=O)[O-])n2)ccc2occc12`: the outcome in the series with IMR-32 [2] was inactive. Also, the Activity entry is “Dose-dependent effect” with IMR-32 [16] and “Non-toxic” in series [18].

With `COc1c(-c2cc(-c3ccccc3)n(-c3ccc(F)cc3)n2)ccc2occc12`, in the series on IMR-32 [2], the outcome was inactive. The Activity entry in the series with IMR-32 [16] was “Dose-dependent effect”; in [18], “Non-toxic”.

Consider `COc1ccc(-n2nc(-c3ccc4occc4c3OC)cc2-c2ccccc2)cc1`, for which the result with IMR-32 [2] and in the series on IMR-32 [22] was inactive. In addition, in [18], the Activity result is listed as “Non-toxic”.

For the compound `COc1c(C(=O)/C=C(\O)c2ccccc2)ccc2occc12` [PONGAMOL], the Activity in the series with HeLa [1] is listed as 23%; with Jurkat [4] it was 17%; in the series on IMR-32 [10], 38%; in [18] it was “Non-toxic”. The outcome in the series on IMR-32 [2], in the series on Jurkat [3], with HeLa [5], in the series on Jurkat [6], with Jurkat [7] and in the series on HeLa [11] was Active. Also, the outcome with HeLa [12] and with IMR-32 [14] was Active. The result in the series with IMR-32 [22] was inactive. Also, the inhibition result in the series filed under Homo sapiens is “inactive”.

On to `COc1c(-c2cc(-c3ccccc3)n(-c3ccccc3C)n2)ccc2occc12`, for which the outcome in the series with IMR-32 [2] was inactive. For the same compound, the Activity entry is “Dose-dependent effect” in the series with IMR-32 [16] and “Non-toxic” in [18]. Moreover, the result in the series on IMR-32 [19] was Active.

For the compound `COc1c(-c2cc(-c3ccccc3)n(-c3ccccc3)n2)ccc2occc12`, the result with IMR-32 [2] and in the series on IMR-32 [22] was inactive. In addition, the Activity result in series [18] was “Non-toxic”.

For the origin of these results see ChEMBL document CHEMBL3046914, “Synthesis and anticancer effects of pongamol derivatives on mitogen signaling and cell cycle kinases” (Med Chem Res, 2012).
